Source: PMC8910920 (International Journal of Molecular Sciences, 2022)
≈ marks a conversion by molar mass, not a printed value.

What was measured:
[1] = Aqueous solubility in simulated gastric fluid; assay type: physicochemical; settings: simulated gastric conditions (pH < 5.5)
Protocol: These studies were subcontracted to Eurofins-CEREP or Eurofins-PANLABS. Briefly, agonists and antagonist assays were performed in cell cultures overexpressing the corresponding channel (CHO: TRPV1 and TRPA1; HEK293: TRPV3 and ASIC3). In vitro pharmacology, cellular channel functional assays: the compound was prepared in assay buffer to the final concentration, 10 μM. The compound wells, reference agonist and background vehicle controls were prepared in DMSO at 0.3%. The reference agonist for each Ion Channel assayed was prepared in a similar manner to serve as the assay control. […] The agonist assay was conducted on fluorimeter instruments where the test compound, vehicle controls, and reference agonist were added to the assay plate after a fluorescence baseline was established. […] For the antagonist assay, the compound was pre-incubated for five minutes at room temperature, and then challenged with the EC80 concentration of the reference agonist after establishment of a fluorescence baseline. […] Binding assay results are expressed as a percent of control specific binding. […] Aqueous solubility (μM) was determined by comparing the peak area of the principal peak in a calibration standard (200 μM) containing organic solvent (methanol/water, 60/40, v/v) with the peak area of the corresponding peak in a buffer sample. […] The amount of compound in organic phase was calculated by subtraction. […]

hTRPM8 = target: T1, hTRPM8 (Homo sapiens, UniProt Q7Z2W7); assay: Ca2+ microfluorography assay, HEK293 cells expressing hTRPM8; assay type: cell-based; settings: HEK293-hTRPM8, 100 μM menthol
T1 construct: expressed in transfected cells
Protocol: This represents a similar activity as β–lactam 2 and a somewhat higher potency than the model TRPM8 antagonists AMTB.
To measure the effect of the compounds against TRPM8 activity we used microfluorometry-based calcium flux assays with Fluo-4 NW Ca^2+ dye and fluorescence as described in [30]. Briefly, human embryonic kidney cell line (HEK293) cells stably transfected with rTRPM8 or hTRPM8 were seeded in 96-well plates at a cell density of 30,000 cells. After 2 days the medium was replaced with 100 μL of the dye, Fluo-4 NW, loading solution supplemented with probenecid 2.5 mM and incubated 1 h at 37 °C. The TRPM8 activity was measured using POLASTAR plate reader (BMG Labtech) setting the excitation wavelength at 485 nm and the emission wavelength at 520 nm. The baseline fluorescence was recorded for 3 cycles before the addition of vehicle compound at different concentrations and the antagonist, 10 μM AMTB. Fluorescence intensity was recorded during 7 more cycles and 100 μM menthol was added. Fluorescence intensity was recorded during 10 more cycles.
Data analysis: The Z-factor was calculated in each assay using the following equation: (3 × (SDmax + SDmin))/(Mean max-Mean min). In all the experiments, the Z-factor was ≥0.5. The effect of the compounds against TRPM8 activity was determined by normalizing their effect on the maximum fluorescence observed after application of 100 μM menthol. […]

T1 sequence (Q7Z2W7 whole entry): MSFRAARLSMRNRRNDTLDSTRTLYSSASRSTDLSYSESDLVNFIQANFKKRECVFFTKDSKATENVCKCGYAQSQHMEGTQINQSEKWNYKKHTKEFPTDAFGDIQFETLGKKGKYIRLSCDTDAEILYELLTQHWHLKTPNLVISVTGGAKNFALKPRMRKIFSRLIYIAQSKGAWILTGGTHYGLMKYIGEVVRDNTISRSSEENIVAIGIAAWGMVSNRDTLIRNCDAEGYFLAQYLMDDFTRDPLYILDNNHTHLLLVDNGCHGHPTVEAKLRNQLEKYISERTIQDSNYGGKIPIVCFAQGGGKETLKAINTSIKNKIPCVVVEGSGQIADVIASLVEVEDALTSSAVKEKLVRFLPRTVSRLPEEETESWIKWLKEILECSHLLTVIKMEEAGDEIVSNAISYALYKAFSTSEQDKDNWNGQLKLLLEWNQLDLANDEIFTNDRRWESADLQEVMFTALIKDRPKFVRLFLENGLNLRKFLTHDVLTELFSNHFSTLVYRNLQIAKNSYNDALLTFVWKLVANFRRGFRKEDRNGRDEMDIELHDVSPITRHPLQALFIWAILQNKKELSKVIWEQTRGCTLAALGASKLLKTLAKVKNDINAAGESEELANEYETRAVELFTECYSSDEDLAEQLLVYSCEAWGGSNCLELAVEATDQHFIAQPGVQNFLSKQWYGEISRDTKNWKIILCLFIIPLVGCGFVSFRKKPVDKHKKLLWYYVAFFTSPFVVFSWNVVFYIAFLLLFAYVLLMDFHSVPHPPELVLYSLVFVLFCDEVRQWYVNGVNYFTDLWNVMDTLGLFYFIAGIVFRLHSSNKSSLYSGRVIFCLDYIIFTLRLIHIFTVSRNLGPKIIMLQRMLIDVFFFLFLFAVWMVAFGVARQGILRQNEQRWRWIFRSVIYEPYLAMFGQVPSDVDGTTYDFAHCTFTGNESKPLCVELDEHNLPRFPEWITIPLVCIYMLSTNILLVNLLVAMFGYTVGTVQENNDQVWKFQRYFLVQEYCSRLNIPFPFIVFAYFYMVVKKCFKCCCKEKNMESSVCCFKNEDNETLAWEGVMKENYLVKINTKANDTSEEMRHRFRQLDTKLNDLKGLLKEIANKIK

C[C@@H]1C(=O)N(C[C@H](Cc2ccccc2)N(Cc2ccccc2)Cc2ccccc2)[C@]1(Cc1ccccc1)C(=O)OC(C)(C)C [RGM8-51, 4(S)-Benzyl-3S-methyl-4-(tert-butoxy)carbonyl-1-[(2′S-dibenzylamino-3′-phenyl)prop-1′-yl]-2-oxoazetidine]
solubility [1]: 198 µM (≈ 117 µg/mL) | IC50 (hTRPM8): 1740 ± 1190 nM
